Legend:
Format in all cases: functional
[1] = test system: Mycobacterium tuberculosis; test: Antituberculosis activity against Mycobacterium tuberculosis by bactec 460 TB method
[2] = test system: Mycobacterium tuberculosis; test: Antituberculosis activity against Mycobacterium tuberculosis by bactec MGIT 960 method
[3] = test system: Mycolicibacterium smegmatis; test: Antituberculosis activity against linezolid-resistant Mycobacterium smegmatis without mutation in 23S rRNA

Measured: MIC

CC(=O)NC[C@H]1CN(c2ccc(N3CCOCC3)c(F)c2)C(=O)O1 [LINEZOLID]
4 mg/L: all assays above
